pIC50: −log10 of the molar value.
What was measured:
Assay type in all cases: biochemical
[1] = target: JAK1 (Homo sapiens, UniProt P23458); test: JAK kinase activity, homogeneous time-resolved fluorescence (JAK1 reaction system); settings: ATP 2 μM, JAK1 protein 0.2 ng/μL; read-out: JAK 1 activity
Method in brief: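 Kinase activity read as the 665 nm/615 nm time-resolved fluorescence ratio (320 nm excitation) after EDTA-containing antibody and XL-615 addition. Reaction ran 1 h at pH 7.0 (Hepes, MgCl2, DTT) with 0.2 ng/μL JAK1 and ATP at 2 μM. IC50 derived by Hill-slope fit.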

[2] = target: T1, JAK3 (Homo sapiens, UniProt P52333); test: JAK kinase activity, homogeneous time-resolved fluorescence (JAK3 reaction system); settings: ATP 2 μM, JAK3 protein 0.04 ng/μL; read-out: JAK 3 activity
T1 sequence (P52333 1-1124): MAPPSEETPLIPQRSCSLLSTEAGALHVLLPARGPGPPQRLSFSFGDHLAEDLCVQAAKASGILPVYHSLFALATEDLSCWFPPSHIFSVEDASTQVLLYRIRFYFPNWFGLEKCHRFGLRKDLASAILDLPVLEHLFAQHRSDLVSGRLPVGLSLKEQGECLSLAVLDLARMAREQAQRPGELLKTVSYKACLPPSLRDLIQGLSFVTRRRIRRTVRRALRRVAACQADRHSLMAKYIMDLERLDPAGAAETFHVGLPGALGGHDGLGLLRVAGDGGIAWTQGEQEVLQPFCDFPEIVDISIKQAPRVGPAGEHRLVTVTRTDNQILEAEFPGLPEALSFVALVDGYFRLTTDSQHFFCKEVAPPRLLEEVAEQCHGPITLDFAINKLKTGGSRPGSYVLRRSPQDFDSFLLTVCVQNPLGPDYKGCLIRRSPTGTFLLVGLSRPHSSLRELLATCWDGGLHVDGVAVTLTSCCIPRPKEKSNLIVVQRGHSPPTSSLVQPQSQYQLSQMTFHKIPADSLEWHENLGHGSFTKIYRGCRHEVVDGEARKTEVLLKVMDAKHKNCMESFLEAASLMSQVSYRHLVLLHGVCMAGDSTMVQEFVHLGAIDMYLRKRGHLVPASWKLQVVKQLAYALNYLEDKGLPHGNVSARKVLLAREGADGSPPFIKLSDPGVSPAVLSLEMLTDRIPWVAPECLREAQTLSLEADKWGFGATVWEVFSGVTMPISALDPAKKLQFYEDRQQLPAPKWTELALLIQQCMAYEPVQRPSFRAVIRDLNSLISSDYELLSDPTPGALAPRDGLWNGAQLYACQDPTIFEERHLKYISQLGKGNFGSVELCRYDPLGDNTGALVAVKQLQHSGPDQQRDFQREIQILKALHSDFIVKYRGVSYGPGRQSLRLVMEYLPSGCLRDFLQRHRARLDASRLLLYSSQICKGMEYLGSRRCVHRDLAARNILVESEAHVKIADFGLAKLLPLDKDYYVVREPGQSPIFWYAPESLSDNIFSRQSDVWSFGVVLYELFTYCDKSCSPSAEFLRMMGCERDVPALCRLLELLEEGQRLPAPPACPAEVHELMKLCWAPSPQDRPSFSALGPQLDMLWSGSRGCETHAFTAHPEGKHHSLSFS

[3] = target: TYK2 (Homo sapiens, UniProt P29597); test: JAK kinase activity, homogeneous time-resolved fluorescence (TYK2 reaction system); settings: ATP 2 μM, TYK2 protein 0.2 ng/μL; read-out: TYK 2 activity
Method in brief: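 Activity read as the 665 nm/615 nm ratio after adding EDTA-containing detection mix with anti-phospho-substrate antibody and XL-615. Beforehand, 0.2 ng/μL TYK2, 2 μM ATP, substrate and compound reacted 1 h in pH 7.0 Hepes buffer with MgCl2 and DTT. IC50 fitted with Hill-slope equation.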

[4] = target: JAK2 (Homo sapiens, UniProt O60674); test: JAK kinase activity, homogeneous time-resolved fluorescence (JAK2 reaction system); settings: ATP 2 μM, JAK2 protein 0.01 ng/μL
Method in brief: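 IC50 derived by Hill-equation fit of the 665/615 nm time-resolved fluorescence ratio after EDTA-containing detection mix with anti-phosphosubstrate antibody. Preceding 1 h reaction contained 2 μM ATP, 0.01 ng/μL JAK2, substrate, 50 mM Hepes pH 7.0, 5 mM MgCl2, 1 mM DTT.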

Chain of JAK1 (P23458 whole entry): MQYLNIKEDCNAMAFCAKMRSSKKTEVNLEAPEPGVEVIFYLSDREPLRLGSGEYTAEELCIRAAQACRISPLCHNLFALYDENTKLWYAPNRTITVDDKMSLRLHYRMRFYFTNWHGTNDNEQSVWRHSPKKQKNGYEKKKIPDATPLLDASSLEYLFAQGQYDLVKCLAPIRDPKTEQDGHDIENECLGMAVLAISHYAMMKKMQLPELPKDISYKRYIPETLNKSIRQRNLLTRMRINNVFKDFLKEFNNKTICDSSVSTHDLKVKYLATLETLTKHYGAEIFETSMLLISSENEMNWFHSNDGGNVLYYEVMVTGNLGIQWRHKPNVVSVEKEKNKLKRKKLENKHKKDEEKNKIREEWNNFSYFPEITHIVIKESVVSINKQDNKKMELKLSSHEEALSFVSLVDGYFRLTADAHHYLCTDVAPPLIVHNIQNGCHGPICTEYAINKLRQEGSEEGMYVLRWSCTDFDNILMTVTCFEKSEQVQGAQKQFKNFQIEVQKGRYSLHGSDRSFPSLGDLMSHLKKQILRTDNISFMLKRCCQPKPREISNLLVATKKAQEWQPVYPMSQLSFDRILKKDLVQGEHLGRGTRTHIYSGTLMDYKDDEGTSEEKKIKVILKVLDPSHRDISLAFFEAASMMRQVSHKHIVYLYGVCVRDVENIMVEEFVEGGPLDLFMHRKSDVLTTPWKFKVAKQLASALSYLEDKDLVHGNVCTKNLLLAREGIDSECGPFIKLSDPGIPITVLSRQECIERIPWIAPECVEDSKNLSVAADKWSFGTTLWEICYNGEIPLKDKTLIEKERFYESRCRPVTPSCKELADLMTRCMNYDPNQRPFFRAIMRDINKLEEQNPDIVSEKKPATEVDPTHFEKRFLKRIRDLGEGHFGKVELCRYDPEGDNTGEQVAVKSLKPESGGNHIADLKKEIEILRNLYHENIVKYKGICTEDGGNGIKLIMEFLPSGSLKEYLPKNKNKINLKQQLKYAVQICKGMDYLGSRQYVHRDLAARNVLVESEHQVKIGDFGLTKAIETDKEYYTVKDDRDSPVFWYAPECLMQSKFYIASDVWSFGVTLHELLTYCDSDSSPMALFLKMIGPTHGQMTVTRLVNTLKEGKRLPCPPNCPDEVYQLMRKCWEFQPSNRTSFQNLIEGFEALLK
Chain of JAK2 (O60674 whole entry): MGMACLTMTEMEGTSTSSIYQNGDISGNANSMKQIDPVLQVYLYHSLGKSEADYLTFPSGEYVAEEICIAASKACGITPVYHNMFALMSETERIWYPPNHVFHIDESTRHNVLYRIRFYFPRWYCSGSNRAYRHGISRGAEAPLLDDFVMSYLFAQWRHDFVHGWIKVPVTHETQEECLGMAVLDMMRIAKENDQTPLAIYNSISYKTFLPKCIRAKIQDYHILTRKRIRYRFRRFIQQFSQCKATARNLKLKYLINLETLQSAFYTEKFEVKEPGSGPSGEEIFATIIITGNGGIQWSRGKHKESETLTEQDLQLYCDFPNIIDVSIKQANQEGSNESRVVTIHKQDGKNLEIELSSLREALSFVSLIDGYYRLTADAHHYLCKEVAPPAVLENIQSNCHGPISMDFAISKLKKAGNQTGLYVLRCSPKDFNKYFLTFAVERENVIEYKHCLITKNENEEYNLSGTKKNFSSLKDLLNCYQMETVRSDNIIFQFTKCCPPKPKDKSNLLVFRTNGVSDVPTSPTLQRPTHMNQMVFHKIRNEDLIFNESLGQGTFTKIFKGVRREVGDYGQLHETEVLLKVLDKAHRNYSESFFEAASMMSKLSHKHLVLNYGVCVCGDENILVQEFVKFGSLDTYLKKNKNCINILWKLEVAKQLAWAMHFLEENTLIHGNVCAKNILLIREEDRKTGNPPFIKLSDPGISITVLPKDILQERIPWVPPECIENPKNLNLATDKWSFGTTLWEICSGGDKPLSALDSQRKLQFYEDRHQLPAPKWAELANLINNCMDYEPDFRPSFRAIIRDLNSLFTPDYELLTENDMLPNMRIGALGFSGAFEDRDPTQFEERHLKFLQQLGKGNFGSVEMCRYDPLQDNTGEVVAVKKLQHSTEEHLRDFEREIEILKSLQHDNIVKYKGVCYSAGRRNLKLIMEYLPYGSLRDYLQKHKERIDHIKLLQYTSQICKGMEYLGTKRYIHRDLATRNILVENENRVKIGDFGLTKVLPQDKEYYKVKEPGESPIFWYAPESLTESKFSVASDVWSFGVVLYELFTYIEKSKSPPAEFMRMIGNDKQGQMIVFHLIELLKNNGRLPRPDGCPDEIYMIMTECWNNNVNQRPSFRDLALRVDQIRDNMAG
Chain of TYK2 (P29597 whole entry): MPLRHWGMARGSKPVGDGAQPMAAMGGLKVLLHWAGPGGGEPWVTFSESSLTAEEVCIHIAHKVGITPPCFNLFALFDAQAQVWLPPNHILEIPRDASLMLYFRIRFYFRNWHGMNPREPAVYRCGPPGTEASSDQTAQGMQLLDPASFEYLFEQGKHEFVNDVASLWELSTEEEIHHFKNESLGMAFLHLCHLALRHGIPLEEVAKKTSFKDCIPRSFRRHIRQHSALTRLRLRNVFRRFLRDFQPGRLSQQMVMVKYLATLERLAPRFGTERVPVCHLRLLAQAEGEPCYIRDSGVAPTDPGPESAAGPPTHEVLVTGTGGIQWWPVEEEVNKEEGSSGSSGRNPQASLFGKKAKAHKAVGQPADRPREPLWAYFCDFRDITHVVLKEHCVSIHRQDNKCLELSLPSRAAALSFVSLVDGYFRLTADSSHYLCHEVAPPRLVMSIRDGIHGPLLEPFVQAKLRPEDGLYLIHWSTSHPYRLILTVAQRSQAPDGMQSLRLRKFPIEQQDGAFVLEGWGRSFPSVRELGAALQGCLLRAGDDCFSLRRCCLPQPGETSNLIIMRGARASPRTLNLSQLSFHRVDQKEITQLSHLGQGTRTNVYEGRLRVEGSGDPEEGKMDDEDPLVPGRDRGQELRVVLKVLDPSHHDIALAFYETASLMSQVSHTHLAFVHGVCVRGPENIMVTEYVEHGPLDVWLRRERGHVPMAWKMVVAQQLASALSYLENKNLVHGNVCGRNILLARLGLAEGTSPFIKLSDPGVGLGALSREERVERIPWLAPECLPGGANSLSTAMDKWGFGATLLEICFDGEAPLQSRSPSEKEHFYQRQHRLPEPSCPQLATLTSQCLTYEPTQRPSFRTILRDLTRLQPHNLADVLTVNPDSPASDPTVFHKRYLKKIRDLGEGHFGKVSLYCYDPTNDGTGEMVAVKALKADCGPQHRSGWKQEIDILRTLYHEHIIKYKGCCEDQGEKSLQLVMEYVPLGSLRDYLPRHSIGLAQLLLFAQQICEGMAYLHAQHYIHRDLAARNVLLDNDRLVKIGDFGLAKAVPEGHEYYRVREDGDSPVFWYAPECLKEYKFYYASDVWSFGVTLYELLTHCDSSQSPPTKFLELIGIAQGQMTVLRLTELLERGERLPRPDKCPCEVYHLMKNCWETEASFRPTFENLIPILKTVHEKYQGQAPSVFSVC

pIC50 [1]	pIC50 [2]	pIC50 [3]	pIC50 [4]	SMILES
5.00 to 6.00	6.00 to 7.00	< 5.00	< 5.00	CC1CCOCc2cc(ccc2OC2CC2)Nc2nccc(n2)-c2ccc(cc2[N+](=O)[O-])C(=O)NC1 (centres unmarked) [Example 158, 4^4-cyclopropoxy-9-methyl-1^2-nitro-6-oxa-3,11-diaza-2(4,2)-pyrimi-dina-1(1,4),4(1,3)-dibenzenacyclo-dodecaphan-12-one]
6.00 to 7.00	> 8.00	6.00 to 7.00	7.00 to 7.96	Nc1cc2ccc1-c1ccnc(n1)Nc1cc(cc(N3CCOCC3)c1)COCCCCNC2=O [Example 52, 1^2-amino-4^5-morpholin-6-oxa-3,11-diaza-2(4,2)-pyrimidina-1(1,4),4(1,3)-dibenzenacyclododecaphan-12-one]
5.00 to 6.00	7.00 to 7.96	5.00 to 6.00	6.00 to 7.00	C[C@H]1CCOCc2cc(ccc2OC2CC2)Nc2nccc(n2)-c2ccc(cc2N)C(=O)NC1 [Example 180, (S)-1^2-amino-4^4-cyclopropoxy-9-methyl-6-oxa-3,11-diaza-2(4,2)-py-rimidina-1(1,4),4(1,3)-dibenzena-cyclododecaphan-12-one]
6.00 to 7.00	6.00 to 7.00	5.00 to 6.00	6.00 to 7.00	Cc1ccc2cc1COCCCCNC(=O)c1ccc(c(F)c1)-c1ccnc(n1)N2 [Example 38, 1^2-fluoro-4^4-methyl-6-oxa-3,11-diaza-2(4,2)-pyrimidina-1(1,4),4(1,3)-di-benzenacyclododecaphan-12-one]
6.00 to 7.00	> 8.00	5.00 to 6.00	6.00 to 7.00	Nc1cc2ccc1-c1ccnc(n1)Nc1ccc(OCC3CCCOC3)c(c1)COCCCCNC2=O (centres unmarked) [Example 147]
< 5.00	6.00 to 7.00	< 5.00	5.00 to 6.00	O=C1NCCCCOCc2cc(ccc2OCC2CC(F)(F)C2)Nc2nccc(n2)-c2ccc1cc2[N+](=O)[O-] [Example 126, 4^4-((3,3-Difluorocyclobutyl)methoxy)-1^2-nitro-6-oxa-3,11-diaza-2(4,2)-pyrimidina-1(1,4),4(1,3)-di-benzenacyclododecaphan-12-one]
5.00 to 6.00	> 8.00	5.00 to 6.00	6.00 to 7.00	CC1CCNC(=O)c2ccc(c(N)c2)-c2ccnc(n2)Nc2ccc(OCC3CCCOC3)c(c2)COC1 (centres unmarked) [Example 140, 1^2-amino-8-methyl-4^4-((tetrahydro-2H-pyran-3-yl)methoxy)-6-oxa-3,11-diaza-2(4,2)-pyrimidina-1(1,4),4(1,3)-dibenzenacyclododecaphan-12-one]
5.00 to 6.00	5.00 to 6.00	< 5.00	5.00 to 6.00	O=C1Nc2ccc(cc2)OCc2cc(ccc2OCC2CCCOC2)Nc2nccc(n2)-c2ccc1cc2[N+](=O)[O-] (centres unmarked) [Example 212, 1^2-nitro-4^4-((tetrahydro-2H-pyran-3-yl)methoxy)-6-oxa-3,8-diaza-2(4,2)-pyrimidina-1,7(1,4),4(1,3)-tri-benzenacyclononaphane-9-one]
5.00 to 6.00	6.00 to 7.00	5.00 to 6.00	6.00 to 7.00	CC1CCOCc2cc(ccc2OC2CCCOC2)Nc2nccc(n2)-c2ccc(cc2[N+](=O)[O-])C(=O)NC1 (centres unmarked) [Example 162, 9-methyl-1^2-nitro-4^4-((tetrahydro-2H-pyran-3-yl)oxy)-6-oxa-3,11-di-aza-2(4,2)-pyrimidina-1(1,4),4(1,3)-dibenzenacyclododecaphan-12-one]
5.00 to 6.00	5.00 to 6.00	5.00 to 6.00	6.00 to 7.00	O=C1NCCCCCOCc2cc(ccc2N2CCOCC2)Nc2nccc(n2)-c2ccc1cc2[N+](=O)[O-] [Example 49, 1^2-nitro-4^4-morpholin-6-oxa-3,12-di-aza-2(4,2)-pyrimidina-1(1,4),4(1,3)-dibenzenacyclotridecaphan-13-one]
5.00 to 6.00	> 8.00	5.00 to 6.00	6.00 to 7.00	Nc1cc2ccc1-c1ccnc(n1)Nc1ccc(OCC3CCC(F)(F)C3)c(c1)COCCCCNC2=O (centres unmarked) [Example 121, 1^2-amino-4^4-((3,3-difluorocyclo-pentyl)methoxy)-6-oxa-3,11-diaza-2(4,2)-pyrimidina-1(1,4),4(1,3)-di-benzenacyclododecaphan-12-one]
5.00 to 6.00	6.00 to 7.00	< 5.00	5.00 to 6.00	COc1ccc(F)cc1COc1ccc2cc1COCCCCNC(=O)c1ccc(c(N)c1)-c1ccnc(n1)N2 [Example 177, 1^2-amino-4^4-((5-fluoro-2-methoxy-benzyl)oxy)-6-oxa-3,11-diaza-2(4,2)-pyrimidina-1(1,4),4(1,3)-dibenz-enacyclododecaphan-12-one]
5.00 to 6.00	6.00 to 7.00	< 5.00	6.00 to 7.00	CC(C)Oc1ccc2cc1COCCCCNC(=O)c1ccc(c([N+](=O)[O-])c1)-c1ccnc(n1)N2 [Example 64, 4^4-isopropoxy-1^2-nitro-6-oxa-3,11-diaza-2(4,2)-pyrimidina-1(1,4),4(1,3)-dibenzenacyclododecaphan-12-one]
6.00 to 7.00	7.00 to 7.96	6.00 to 7.00	7.00 to 7.96	CC(C)Oc1ccc2cc1COCC[C@@H](C)CNC(=O)c1ccc(c(N)c1)-c1ccnc(n1)N2 [Example 187, (R)-1^2-amino-4^4-isopropoxy-9-meth-yl-6-oxa-3,11-diaza-2(4,2)-pyri-midina-1(1,4),4(1,3)-dibenzenacyclo-dodecaphan-12-one]
6.00 to 7.00	> 8.00	6.00 to 7.00	7.00 to 7.96	CC1CCOCc2cc(ccc2OC(C)C)Nc2nccc(n2)-c2ccc(cc2N)C(=O)NC1 (centres unmarked) [Example 178, 1^2-amino-4^4-isopropoxy-9-methyl-6-oxa-3,11-diaza-2(4,2)-pyrimidin-a-1(1,4)4(1,3)-dibenzenacyclododeca-phan-12-one]
5.00 to 6.00	6.00 to 7.00	< 5.00	5.00 to 6.00	O=C1NCCCCOCc2cc(ccc2OC2COC2)Nc2nccc(n2)-c2ccc1cc2[N+](=O)[O-] [Example 72, 1^2-nitro-4^4-(oxetan-3-oxy)-6-oxa-3,11-diaza-2(4,2)-pyrimidina-1(1,4),4(1,3)-dibenzenacyclododecaphan-12-one]
5.00 to 6.00	7.00 to 7.96	5.00 to 6.00	6.00 to 7.00	Nc1cc2ccc1-c1ccnc(n1)Nc1ccc(F)c(c1)COCCCCNC2=O [Example 69, 1^2-amino-4^4-fluoro-6-oxa-3,11-diaza-2(4,2)-pyrimidina-1(1,4),4(1,3)-di-benzenacyclododecaphan-12-one]
5.00 to 6.00	7.00 to 7.96	5.00 to 6.00	6.00 to 7.00	CC1CCNC(=O)c2ccc(c(N)c2)-c2ccnc(n2)Nc2ccc(OCC3COC3)c(c2)COC1 (centres unmarked) [Example 175]
5.00 to 6.00	6.00 to 7.00	< 5.00	6.00 to 7.00	O=C1NCCCCOCc2cc(cc(N3CCSCC3)c2)Nc2nccc(n2)-c2ccc1cc2[N+](=O)[O-] [Example 76, 1^2-nitro-4^5-thiomorpholin-6-oxa-3,11-diaza-2(4,2)-pyrimidina-1(1,4),4(1,3)-dibenzenacyclododecaphan-12-one]

SMILES	pIC50 [1]	pIC50 [2]	pIC50 [3]	pIC50 [4]
O=C1NCCCCOCc2cc(ccc2OC2CCCC2)Nc2nccc(n2)-c2ccc1cc2[N+](=O)[O-] [Example 87, 4^4-cyclopentoxy-1^2-nitro-6-oxa-3,11-diaza-2(4,2)-pyrimidina-1(1,4),4(1,3)-dibenzenacyclododecaphan-12-one]	< 5.00	6.00 to 7.00	< 5.00	< 5.00

Source: patent US20230203059A1, “MACROCYCLIC JAK INHIBITOR AND USES THEREOF” (Biopolar Hongye (Guangdong) Pharmaceutical Co. Ltd., priority 2020, published 2023)
